Source: patent US20260184663A1, “INDENE COMPOUNDS, PHARMACEUTICAL COMPOSITIONS THEREOF, AND THEIR THERAPEUTIC APPLICATIONS” (NucMito Pharmaceuticals co. Ltd., priority 2022, published 2026)
Like-named read-outs stand apart in the source and are kept apart here.

How the values were obtained:
Assay type in all cases: cell-based
[1] = system: A549 (lung adenocarcinoma); test: Antiproliferative activity (CCK-8 cell viability), A549; conditions: Homo sapiens, 72 h, read-out: Antiproliferative activity in cancerous cells, A549 (inhibition of cell growth); for inhibition at 3.3 µM: Compound concentration: 3.3 μM; for inhibition at 10 µM: Compound concentration: 10 μM
Outline: (§1)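 Growth inhibition graded in bands from percent viability against DMSO vehicle, read as CCK-8 absorbance at 450 nm. Compound tested at 3.3, 10 or 30 μM for 72 h, 37 °C; media contained 10% FBS: DMEM for HepG2/SW480, MEM for HeLa, F-12K for A549.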

[2] = system: A431 (epidermoid carcinoma); test: Antiproliferative activity (CCK-8 cell viability), A431; conditions: Homo sapiens, 72 h; for inhibition at 3.3 µM: A-431, Compound concentration: 3.3 μM; for inhibition at 10 µM: A-431, Compound concentration: 10 μM; for inhibition at 30 µM: A-431, Compound concentration: 30 μM
Outline: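 This growth inhibition assay used A431 cells maintained in Dulbecco's modified Eagle's medium plus 10% fetal bovine serum. Cells were seeded in 96-well plates, treated with compound for 72 h at 37° C., and then given 10 μL CCK-8 solution. After a further 4 h, absorbance was read at 450 nm.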

[3] = system: MDA-MB-231 (breast cancer); test: Antiproliferative activity (CCK-8 cell viability), MDA-MB-231; conditions: Homo sapiens, 72 h; for inhibition at 3.3 µM: Compound concentration: 3.3 μM; for inhibition at 10 µM: Compound concentration: 10 μM; for inhibition at 30 µM: Compound concentration: 30 μM
Outline: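 Growth inhibition of human MDA-MB-231 breast cancer cells was assessed with a Cell Counting Kit-8. Cells cultured in DMEM plus 10% FBS were seeded at 2,000-5,000 cells/well, treated after attachment, and kept 72 h at 37° C. CCK-8 solution (10 μL) was added for 4 h, and absorbance at 450 nm was compared with DMSO-treated controls.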

[4] = system: SW480 (colon cancer); test: Antiproliferative activity (CCK-8 cell viability), SW480; conditions: Homo sapiens, 72 h, read-out: Antiproliferative activity in cancerous cells, SW480 (inhibition of cell growth); for inhibition at 3.3 µM: Compound concentration: 3.3 μM; for inhibition at 10 µM: Compound concentration: 10 μM
Outline: as §1

[5] = system: HeLa (cervical cancer); test: Antiproliferative activity (CCK-8 cell viability), HeLa; conditions: Homo sapiens, 72 h, read-out: Antiproliferative activity in cancerous cells, HELA (inhibition of cell growth); for inhibition at 3.3 µM: Compound concentration: 3.3 μM; for inhibition at 10 µM: Compound concentration: 10 μM
Outline: as §1

[6] = system: HepG2 (liver cancer); test: Antiproliferative activity (CCK-8 cell viability), HepG2; conditions: Homo sapiens, 72 h, read-out: Antiproliferative activity in cancerous cells, HepG2 (inhibition of cell growth); for inhibition at 3.3 µM: Compound concentration: 3.3 μM; for inhibition at 10 µM: Compound concentration: 10 μM
Outline: as §1

[7] = system: B16F10 (malignant melanoma); test: Antiproliferative activity (CCK-8 cell viability), B16F10; conditions: Mus musculus, 72 h, read-out: Antiproliferative activity in cancerous cells, B16F10 (inhibition of cell growth); for inhibition at 3.3 µM: B16-F10, Compound concentration: 3.3 μM; for inhibition at 10 µM: B16-F10, Compound concentration: 10 μM
Outline: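 Cell growth inhibition was measured in B16F10 malignant melanoma cells with a Cell Counting Kit-8 viability assay. Cells were maintained in DMEM plus 10% fetal bovine serum, seeded at 2,000-5,000 cells/well in 96-well plates, and treated for 72 h at 37° C. Viability was expressed relative to DMSO-treated vehicle control wells.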

[8] = read-out: Antiproliferative activity in cancerous cells, A431 (inhibition of cell growth)
[9] = read-out: Antiproliferative activity in cancerous cells, MDA-MB-231 (inhibition of cell growth)

## CC1=C(CC(=O)O)c2cc(Cl)ccc2/C1=C\c1cccc(Oc2ccc(Cl)cc2)c1 [C93, (Z)-2-(5-Chloro-1-(3-(4-chlorophenoxy)benzylidene)-2-methyl-1H-inden-3-yl)acetic acid]
[1]
  inhibition at 3.3 µM: < 30%
  inhibition at 10 µM: ≥ 50%
[2]; [8]
  inhibition at 3.3 µM: ≥ 50%
  inhibition at 10 µM: ≥ 50%
[3]; [9]
  inhibition at 3.3 µM: < 30%
  inhibition at 10 µM: ≥ 50%
[3]; read-out: Antiproliferative activity in cancerous cells, MDA-MB-231
  inhibition at 30 µM: < 30%
[4]
  inhibition at 3.3 µM: < 30%
  inhibition at 10 µM: 30 to 50%
[5]
  inhibition at 3.3 µM: < 30%
  inhibition at 10 µM: ≥ 50%
[6]
  inhibition at 3.3 µM: ≥ 50%
  inhibition at 10 µM: ≥ 50%
[7]
  inhibition at 3.3 µM: ≥ 50%
  inhibition at 10 µM: ≥ 50%

## CCc1ccc(COCc2ccc(/C=C3/C(C)=C(CC(=O)O)c4cc(F)ccc43)cc2)cc1 [B151, (Z)-2-(1-(4-(((4-Ethylbenzyl)oxy)methyl)benzylidene)-5-fluoro-2-methyl-1H-inden-3-yl)acetic acid]
[1]
  inhibition at 3.3 µM: 30 to 50%
  inhibition at 10 µM: ≥ 50%
[2]; [8]
  inhibition at 3.3 µM: ≥ 50%
  inhibition at 10 µM: ≥ 50%
[3]; [9]
  inhibition at 3.3 µM: 30 to 50%
  inhibition at 10 µM: ≥ 50%
[4]
  inhibition at 3.3 µM: 30 to 50%
  inhibition at 10 µM: ≥ 50%
[5]
  inhibition at 3.3 µM: < 30%
  inhibition at 10 µM: ≥ 50%
[6]
  inhibition at 3.3 µM: < 30%
  inhibition at 10 µM: ≥ 50%
[7]
  inhibition at 3.3 µM: < 30%
  inhibition at 10 µM: < 30%

## CC1=C(CC(=O)O)c2cc(F)ccc2/C1=C\c1ccc(COCc2ccc(C(F)F)cc2)cc1 [B152, (Z)-2-(1-(4-(((4-(Difluoromethyl)benzyl)oxy)methyl)benzylidene)-5-fluoro-2-methyl-1H-inden-3-yl)acetic acid]
[1]
  inhibition at 3.3 µM: < 30%
  inhibition at 10 µM: ≥ 50%
[2]; [8]
  inhibition at 3.3 µM: 30 to 50%
  inhibition at 10 µM: ≥ 50%
[3]; [9]
  inhibition at 3.3 µM: < 30%
  inhibition at 10 µM: ≥ 50%
[4]
  inhibition at 3.3 µM: 30 to 50%
  inhibition at 10 µM: ≥ 50%
[5]
  inhibition at 3.3 µM: < 30%
  inhibition at 10 µM: ≥ 50%
[6]
  inhibition at 3.3 µM: < 30%
  inhibition at 10 µM: ≥ 50%
[7]
  inhibition at 3.3 µM: < 30%
  inhibition at 10 µM: ≥ 50%

## CC1=C(CC(=O)O)c2cc(F)ccc2/C1=C\c1ccc([S+]([O-])c2ccc(F)cc2)cc1 (stereo not drawn) [C45, (Z)-2-(5-Fluoro-1-(4-((4-fluorophenyl)sulfinyl)benzylidene)-2-methyl-1H-inden-3-yl)acetic acid]
[1]
  inhibition at 3.3 µM: < 30%
  inhibition at 10 µM: 30 to 50%
[2]; [8]
  inhibition at 3.3 µM: < 30%
  inhibition at 10 µM: < 30%
[2]; read-out: Antiproliferative activity in cancerous cells, A431
  inhibition at 30 µM: < 30%
[3]; [9]
  inhibition at 3.3 µM: 30 to 50%
  inhibition at 10 µM: ≥ 50%
[4]
  inhibition at 3.3 µM: < 30%
  inhibition at 10 µM: 30 to 50%
[5]
  inhibition at 3.3 µM: < 30%
  inhibition at 10 µM: ≥ 50%
[6]
  inhibition at 3.3 µM: < 30%
  inhibition at 10 µM: < 30%
[7]
  inhibition at 3.3 µM: ≥ 50%
  inhibition at 10 µM: ≥ 50%

## CC1=C(CC(=O)O)c2cc(I)ccc2/C1=C/c1ccc(COCc2ccc(F)cc2)cc1 [E18, (E)-2-(1-(4-(((4-Fluorobenzyl)oxy)methyl)benzylidene)-5-iodo-2-methyl-1H-inden-3-yl)acetic acid]
[1]
  inhibition at 3.3 µM: < 30%
  inhibition at 10 µM: ≥ 50%
[1]; Compound concentration: 30 μM
  inhibition at 30 µM: ≥ 50%
[2]; [8]
  inhibition at 3.3 µM: ≥ 50%
  inhibition at 10 µM: ≥ 50%
  inhibition at 30 µM: ≥ 50%
[3]; [9]
  inhibition at 3.3 µM: < 30%
  inhibition at 10 µM: ≥ 50%
  inhibition at 30 µM: ≥ 50%
[4]
  inhibition at 3.3 µM: < 30%
  inhibition at 10 µM: ≥ 50%
[4]; Compound concentration: 30 μM
  inhibition at 30 µM: ≥ 50%
[5]
  inhibition at 3.3 µM: ≥ 50%
  inhibition at 10 µM: ≥ 50%
[5]; Compound concentration: 30 μM
  inhibition at 30 µM: ≥ 50%
[6]
  inhibition at 3.3 µM: < 30%
  inhibition at 10 µM: ≥ 50%
[6]; Compound concentration: 30 μM
  inhibition at 30 µM: ≥ 50%
[7]
  inhibition at 3.3 µM: 30 to 50%
  inhibition at 10 µM: ≥ 50%
[7]; B16-F10, Compound concentration: 30 μM
  inhibition at 30 µM: ≥ 50%

## CC1=C(CC(=O)O)c2cc(Cl)ccc2/C1=C\c1cccc(Oc2ccc(C(F)(F)F)cc2)c1 [C105, (Z)-2-(5-Chloro-2-methyl-1-(3-(4-(trifluoromethyl)phenoxy)benzylidene)-1H-inden-3-yl)acetic acid]
[1]
  inhibition at 3.3 µM: ≥ 50%
  inhibition at 10 µM: ≥ 50%
[2]; [8]
  inhibition at 3.3 µM: ≥ 50%
  inhibition at 10 µM: ≥ 50%
[3]; [9]
  inhibition at 3.3 µM: ≥ 50%
  inhibition at 10 µM: ≥ 50%
[4]
  inhibition at 3.3 µM: ≥ 50%
  inhibition at 10 µM: ≥ 50%
[5]
  inhibition at 3.3 µM: ≥ 50%
  inhibition at 10 µM: ≥ 50%
[6]
  inhibition at 3.3 µM: ≥ 50%
  inhibition at 10 µM: ≥ 50%
[7]
  inhibition at 3.3 µM: ≥ 50%
  inhibition at 10 µM: ≥ 50%

## CC1=C(CC(=O)O)c2cc(F)ccc2/C1=C\c1cccc(Oc2ccc(O)c(Cl)c2)c1 [C103, (Z)-2-(1-(3-(3-Chloro-4-hydroxyphenoxy)benzylidene)-5-fluoro-2-methyl-1H-inden-3-yl)acetic acid]
[1]
  inhibition at 3.3 µM: 30 to 50%
  inhibition at 10 µM: ≥ 50%
[2]; [8]
  inhibition at 3.3 µM: 30 to 50%
  inhibition at 10 µM: ≥ 50%
[3]; [9]
  inhibition at 3.3 µM: < 30%
  inhibition at 10 µM: ≥ 50%
[4]
  inhibition at 3.3 µM: < 30%
  inhibition at 10 µM: ≥ 50%
[5]
  inhibition at 3.3 µM: < 30%
  inhibition at 10 µM: ≥ 50%
[6]
  inhibition at 3.3 µM: < 30%
  inhibition at 10 µM: ≥ 50%
[7]
  inhibition at 3.3 µM: ≥ 50%
  inhibition at 10 µM: ≥ 50%

## CC1=C(CC(=O)O)c2cc(C)ccc2/C1=C\c1ccc(COCc2ccc(F)cc2)cc1 [B110, (Z)-2-(1-(4-(((4-Fluorobenzyl)oxy)methyl)benzylidene)-2,5-dimethyl-1H-inden-3-yl)acetic acid]
[1]
  inhibition at 3.3 µM: 30 to 50%
  inhibition at 10 µM: ≥ 50%
[2]; [8]
  inhibition at 3.3 µM: 30 to 50%
  inhibition at 10 µM: ≥ 50%
[3]; [9]
  inhibition at 3.3 µM: ≥ 50%
  inhibition at 10 µM: ≥ 50%
[4]
  inhibition at 3.3 µM: < 30%
  inhibition at 10 µM: ≥ 50%
[5]
  inhibition at 3.3 µM: < 30%
  inhibition at 10 µM: ≥ 50%
[6]
  inhibition at 3.3 µM: < 30%
  inhibition at 10 µM: 30 to 50%
[7]
  inhibition at 3.3 µM: ≥ 50%
  inhibition at 10 µM: ≥ 50%

## CC1=C(CC(=O)O)c2cc(Br)ccc2/C1=C\c1cccc(Oc2ccc(Cl)cc2)c1 [C108, (Z)-2-(5-Bromo-1-(3-(4-chlorophenoxy)benzylidene)-2-methyl-1H-inden-3-yl)acetic acid]
[1]
  inhibition at 3.3 µM: < 30%
  inhibition at 10 µM: ≥ 50%
[2]; [8]
  inhibition at 3.3 µM: ≥ 50%
  inhibition at 10 µM: ≥ 50%
[3]; [9]
  inhibition at 3.3 µM: ≥ 50%
  inhibition at 10 µM: ≥ 50%
[4]
  inhibition at 3.3 µM: < 30%
  inhibition at 10 µM: 30 to 50%
[5]
  inhibition at 3.3 µM: < 30%
  inhibition at 10 µM: ≥ 50%
[6]
  inhibition at 3.3 µM: < 30%
  inhibition at 10 µM: ≥ 50%
[7]
  inhibition at 3.3 µM: ≥ 50%
  inhibition at 10 µM: ≥ 50%
